Earlier results in patent US20230129072A1, “SYSTEM, PRODUCT AND METHOD FOR MAINTAINING THE VAGINAL MICROBIOME” (VAGINAL BIOME SCIENCE, INC., priority 2021, published 2023).

Tests used:
[1] = test system: herpes simplex virus (HSV-2); details: after a single exposure

nonoxynol-9 [Example N9]
toxicity to beneficial Lactobacilli spp. (Lactobacilli spp.): toxic

polyethylene glycol (PEG-8)
susceptibility to herpes simplex virus (HSV-2) [1]: markedly increased susceptibility

CC(O)CO (stereo not drawn) [propylene glycol]
susceptibility to herpes simplex virus (HSV-2) [1]: markedly increased susceptibility
